The values below come from paper PMC7531004, “Discovery of gramicidin A analogues with altered activities by multidimensional screening of a one-bead-one-compound library” (Nature Communications, 2020).

The test system of data set [1] is Streptococcus pyogenes SSI-9. Briefly: Antibacterial activity assay of bead-derived peptides (three concentrations). The class given is cell-based. The arrangement: key: +++: inhibition by the 640-fold diluted peptide solution; ++: inhibition by the 160-fold diluted solution; +: inhibition by the 40-fold diluted solution; -: no inhibition. Conditions: S. pyogenes, bead-derived peptide solution, three concentrations. The gist of the method:
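Library peptide stock applied undiluted, 4-fold and 16-fold diluted in DMSO to S. pyogenes SSI-9 (2 × 10^5 CFU) in cation-adjusted Mueller Hinton broth with 5% laked horse blood. After 18 h at 37 °C, growth judged by visible cell precipitation.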

The conditions of data set [2]: cell viability/%. An outline of the steps:
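P388 cells at 1 × 10^4 cells/mL (final) were exposed to library peptides (stocks diluted 250-fold in RPMI1640/10% FBS) for 92 h at 37 °C, 5% CO2. Viable cells were counted by WST-1/1-methoxy PMS (4 h), absorbance 415 nm, and expressed as cell viability (%).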

Data set [3] is described as follows: H+/Na+ transport assay of bead-derived peptides (one-point).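 Also: relative to parent gramicidin A activity set to 1.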 The data set is classed as biochemical. The arrangement: key: relative activity; mean of two control wells = 1.00. Conditions: bead-derived peptide solution, EYPC/EYPG LUVs. An outline of the steps:
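One-point screen: peptide + pyranine-loaded LUVs, 30 min RT with vortexing, 96-well. Read-out is fluorescence intensity scaled as 100 × (Ix – I0)/(Imax – I0). Imax from Triton X-100, I0 from untreated vesicles, and the mean of the two control wells is set to 1.00.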

Where a SMILES comes first, the peptide text is derived from it. [ ]: non-standard residue; d: D form. The star is where a group is joined. NHCH2CH2OH = OCCN*; For = O=C*

A word on the viability: it is the share of living cells, or the viability signal relative to a control. `CC(C)C[C@@H](NC(=O)[C@H](C)NC(=O)CNC(=O)[C@@H](NC=O)C(C)C)C(=O)N[C@@H](C)C(=O)N[C@H](CC(C)C)C(=O)N[C@H](C(=O)N[C@@H](C(=O)N[C@@H](Cc1c[nH]c2ccccc12)C(=O)N[C@@H](C(=O)N[C@@H](Cc1c[nH]c2ccccc12)C(=O)N[C@H](CC(C)C)C(=O)N[C@@H](Cc1c[nH]c2ccccc12)C(=O)N[C@@H](C(=O)N[C@@H](Cc1c[nH]c2ccccc12)C(=O)NCCO)C(C)C)C(C)C)[C@H](C)O)C(C)C` [compound 8043] (For-VGA[dL]A[dL]V[dT]W[dV]W[dL]W[dV]W-NHCH2CH2OH): in data set [1], the antibacterial activity result was “-”. Besides, the viability in data set [2] came to 100%. The “H+/Na+ transport activity normalized against the value of 1 (1.00)” value (“H+/Na+ transport activity normalized” below) in data set [3] is 1.04.
As to `CC(C)C[C@@H](NC(=O)[C@H](C)NC(=O)CNC(=O)[C@@H](NC=O)C(C)C)C(=O)N[C@@H](C)C(=O)N[C@@H](C(=O)N[C@H](C(=O)N[C@H](CC(C)C)C(=O)N[C@@H](Cc1c[nH]c2ccccc12)C(=O)N[C@@H](C(=O)N[C@@H](Cc1c[nH]c2ccccc12)C(=O)N[C@@H](C(=O)N[C@@H](Cc1c[nH]c2ccccc12)C(=O)N[C@H](CC(C)C)C(=O)N[C@@H](Cc1c[nH]c2ccccc12)C(=O)NCCO)C(C)C)C(C)C)C(C)C)C(C)C` [compound 8051] (For-VGA[dL]A[dV]V[dL]W[dV]W[dV]W[dL]W-NHCH2CH2OH), in data set [1], the antibacterial activity result is recorded as “+”. The same compound returned a viability in data set [2] of 16.8%. In addition, the “H+/Na+ transport activity normalized” value in data set [3] is given as 1.13.
Take `CC(C)C[C@@H](NC(=O)[C@H](C)NC(=O)CNC(=O)[C@@H](NC=O)C(C)C)C(=O)N[C@@H](C)C(=O)N[C@H](CC(C)C)C(=O)N[C@H](C(=O)N[C@@H](C(=O)N[C@@H](Cc1c[nH]c2ccccc12)C(=O)N[C@H](CC(C)C)C(=O)N[C@@H](Cc1c[nH]c2ccccc12)C(=O)N[C@@H](C(=O)N[C@@H](Cc1c[nH]c2ccccc12)C(=O)N[C@@H](C(=O)N[C@@H](Cc1c[nH]c2ccccc12)C(=O)NCCO)C(C)C)C(C)C)[C@H](C)O)C(C)C` [compound 8130] (For-VGA[dL]A[dL]V[dT]W[dL]W[dV]W[dV]W-NHCH2CH2OH): the antibacterial activity entry in data set [1] is “-”. The viability in data set [2] amounted to 100%. The “H+/Na+ transport activity normalized” value in data set [3] is listed as 1.17.
For `CC(C)C[C@@H](NC(=O)[C@H](Cc1c[nH]c2ccccc12)NC(=O)[C@H](NC(=O)[C@@H](NC(=O)[C@H](NC(=O)[C@H](C)NC(=O)[C@H](NC(=O)[C@H](C)NC(=O)CNC(=O)[C@@H](NC=O)C(C)C)C(C)C)[C@H](C)O)C(C)C)C(C)C)C(=O)N[C@@H](Cc1c[nH]c2ccccc12)C(=O)N[C@H](CC(C)C)C(=O)N[C@@H](Cc1c[nH]c2ccccc12)C(=O)N[C@@H](C(=O)N[C@@H](Cc1c[nH]c2ccccc12)C(=O)NCCO)C(C)C` [compound 8141] (For-VGA[dV]A[dT]V[dV]W[dL]W[dL]W[dV]W-NHCH2CH2OH) the same measures were “-”, 100% and 1.03.
For the compound `CC(C)C[C@@H](NC(=O)[C@H](C)NC(=O)CNC(=O)[C@@H](NC=O)C(C)C)C(=O)N[C@@H](C)C(=O)N[C@@H](C(=O)N[C@H](C(=O)N[C@H](CC(C)C)C(=O)N[C@@H](Cc1c[nH]c2ccccc12)C(=O)N[C@H](CC(C)C)C(=O)N[C@@H](Cc1c[nH]c2ccccc12)C(=O)N[C@H](CC(C)C)C(=O)N[C@@H](Cc1c[nH]c2ccccc12)C(=O)N[C@@H](C(=O)N[C@@H](Cc1c[nH]c2ccccc12)C(=O)NCCO)C(C)C)C(C)C)[C@H](C)O` [compound 8288] (For-VGA[dL]A[dT]V[dL]W[dL]W[dL]W[dV]W-NHCH2CH2OH), the antibacterial activity result in data set [1] is reported as “-”. Also, the viability in data set [2] was 47.4%. Besides, in data set [3], the “H+/Na+ transport activity normalized” value is reported as 1.02.
For `CC(C)C[C@@H](NC(=O)[C@H](C)NC(=O)CNC(=O)[C@@H](NC=O)C(C)C)C(=O)N[C@@H](C)C(=O)N[C@@H](C(=O)N[C@H](C(=O)N[C@H](CC(C)C)C(=O)N[C@@H](Cc1c[nH]c2ccccc12)C(=O)N[C@H](CC(C)C)C(=O)N[C@@H](Cc1c[nH]c2ccccc12)C(=O)N[C@H](CC(C)C)C(=O)N[C@@H](Cc1c[nH]c2ccccc12)C(=O)N[C@H](CC(C)C)C(=O)N[C@@H](Cc1c[nH]c2ccccc12)C(=O)NCCO)C(C)C)C(C)C` [compound 8397] (For-VGA[dL]A[dV]V[dL]W[dL]W[dL]W[dL]W-NHCH2CH2OH), in that order: “+”, 0% and 1.12.
As to `CC(C)C[C@@H](NC(=O)[C@H](C)NC(=O)[C@H](NC(=O)[C@H](C)NC(=O)CNC(=O)[C@@H](NC=O)C(C)C)C(C)C)C(=O)N[C@H](C(=O)N[C@@H](C(=O)N[C@@H](Cc1c[nH]c2ccccc12)C(=O)N[C@H](CC(C)C)C(=O)N[C@@H](Cc1c[nH]c2ccccc12)C(=O)N[C@@H](C(=O)N[C@@H](Cc1c[nH]c2ccccc12)C(=O)N[C@@H](C(=O)N[C@@H](Cc1c[nH]c2ccccc12)C(=O)NCCO)C(C)C)[C@H](C)O)C(C)C)C(C)C` [compound 8473] (For-VGA[dV]A[dL]V[dV]W[dL]W[dT]W[dV]W-NHCH2CH2OH), in data set [1], the antibacterial activity entry was “-”. The compound also had a viability in data set [2] of 53.6%. The “H+/Na+ transport activity normalized” value in data set [3] amounted to 1.01.
For `CNC(=O)C[C@@H](NC(=O)[C@H](Cc1c[nH]c2ccccc12)NC(=O)[C@H](NC(=O)[C@H](Cc1c[nH]c2ccccc12)NC(=O)[C@@H](CC(C)C)NC(=O)[C@H](Cc1c[nH]c2ccccc12)NC(=O)[C@H](NC(=O)[C@@H](NC(=O)[C@@H](CC(C)C)NC(=O)[C@H](C)NC(=O)[C@@H](CC(C)C)NC(=O)[C@H](C)NC(=O)CNC(=O)[C@@H](NC=O)C(C)C)C(C)C)C(C)C)C(C)C)C(=O)N[C@@H](Cc1c[nH]c2ccccc12)C(=O)NCCO` [compound 8516] (For-VGA[dL]A[dL]V[dV]W[dL]W[dV]W[dD](NHMe)W-NHCH2CH2OH) the same measures were “-”, 48.7% and 1.09.
As to `CC(C)C[C@@H](NC(=O)[C@H](C)NC(=O)[C@H](NC(=O)[C@H](C)NC(=O)CNC(=O)[C@@H](NC=O)C(C)C)C(C)C)C(=O)N[C@H](C(=O)N[C@H](CC(C)C)C(=O)N[C@@H](Cc1c[nH]c2ccccc12)C(=O)N[C@@H](C(=O)N[C@@H](Cc1c[nH]c2ccccc12)C(=O)N[C@@H](C(=O)N[C@@H](Cc1c[nH]c2ccccc12)C(=O)N[C@@H](C(=O)N[C@@H](Cc1c[nH]c2ccccc12)C(=O)NCCO)C(C)C)C(C)C)[C@H](C)O)C(C)C` [compound 8554] (For-VGA[dV]A[dL]V[dL]W[dT]W[dV]W[dV]W-NHCH2CH2OH), the antibacterial activity entry in data set [1] is on record as “-”. The viability in data set [2] worked out at 61.3%. Besides, the “H+/Na+ transport activity normalized” value in data set [3] is listed as 1.03.
Consider `CC(C)C[C@@H](NC(=O)[C@H](Cc1c[nH]c2ccccc12)NC(=O)[C@H](NC(=O)[C@H](Cc1c[nH]c2ccccc12)NC(=O)[C@@H](CC(C)C)NC(=O)[C@@H](NC(=O)[C@H](NC(=O)[C@H](C)NC(=O)[C@H](NC(=O)[C@H](C)NC(=O)CNC(=O)[C@@H](NC=O)C(C)C)C(C)C)C(C)C)C(C)C)C(C)C)C(=O)N[C@@H](Cc1c[nH]c2ccccc12)C(=O)N[C@@H](C(=O)N[C@@H](Cc1c[nH]c2ccccc12)C(=O)NCCO)[C@H](C)O` [compound 8580] (For-VGA[dV]A[dV]V[dL]W[dV]W[dL]W[dT]W-NHCH2CH2OH), for which the antibacterial activity result in data set [1] is “+”. This compound also showed a viability in data set [2] of 60.6%. Besides, the “H+/Na+ transport activity normalized” value in data set [3] came out at 1.01.
